# Assays:
# Vtc4p = target: T1, Vtc4p (Saccharomyces cerevisiae, UniProt P47075); assay: polyP synthesis, urea PAGE with DAPI stain; type: biochemical; details: 10 mM ATP, 1 mM MnCl2, pH 8.3, room temperature overnight
# T1 construct: gene VTC4; probably the cytoplasmic tunnel domain of earlier work
# mouse ThTPase [1] = target: T2, mouse ThTPase (Mus musculus, UniProt Q8JZL3); assay: X-ray crystal structure of product complex (soak); type: binding; details: pH 9.0, 0.2 M MgCl2 in crystallization buffer
# T2 construct: gene Thtpa; full-length, codon-optimized synthetic gene; pMH-HT, His6 tag cleaved by TEV as for AtTTM3; expressed in E. coli
# T2 sequence (Q8JZL3 1-224): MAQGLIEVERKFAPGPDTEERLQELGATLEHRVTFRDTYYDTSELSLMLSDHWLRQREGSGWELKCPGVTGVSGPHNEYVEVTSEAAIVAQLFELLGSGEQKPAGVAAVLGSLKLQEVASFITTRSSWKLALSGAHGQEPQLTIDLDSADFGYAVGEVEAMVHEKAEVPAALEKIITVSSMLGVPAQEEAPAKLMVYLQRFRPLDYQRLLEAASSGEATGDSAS
# mouse ThTPase [2] = target: T2, mouse ThTPase; assay: X-ray crystal structure of complex (soak); type: binding; details: 10 mM MgCl2; low pH where activity is minimal (text: pH 6; methods: buffer pH 6.8); tunnel active site
# ygiF = target: T3, ygiF (Escherichia coli, UniProt P30871); assay: X-ray crystal structure of complex (soak); type: binding; details: MgCl2 (5a60) or MnCl2 (5a61), 5 mM; tunnel active site
# T3 construct: full-length, tunnel domain plus CHAD domain; pMH-HT, His6 tag cleaved by TEV as for AtTTM3; expressed in E. coli
# T3 sequence (P30871 whole entry, the tested form may be a part): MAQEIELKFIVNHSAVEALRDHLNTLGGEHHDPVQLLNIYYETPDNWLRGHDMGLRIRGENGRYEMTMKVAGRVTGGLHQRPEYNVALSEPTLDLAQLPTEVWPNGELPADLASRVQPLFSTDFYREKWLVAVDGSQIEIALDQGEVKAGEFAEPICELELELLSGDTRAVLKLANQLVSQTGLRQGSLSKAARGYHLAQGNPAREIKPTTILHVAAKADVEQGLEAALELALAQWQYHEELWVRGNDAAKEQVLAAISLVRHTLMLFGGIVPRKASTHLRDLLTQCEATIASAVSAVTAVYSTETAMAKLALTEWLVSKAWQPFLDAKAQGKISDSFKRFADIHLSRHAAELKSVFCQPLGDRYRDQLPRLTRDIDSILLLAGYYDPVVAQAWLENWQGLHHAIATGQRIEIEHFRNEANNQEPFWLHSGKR
# T1 sequence (P47075 189-480 limits assumed): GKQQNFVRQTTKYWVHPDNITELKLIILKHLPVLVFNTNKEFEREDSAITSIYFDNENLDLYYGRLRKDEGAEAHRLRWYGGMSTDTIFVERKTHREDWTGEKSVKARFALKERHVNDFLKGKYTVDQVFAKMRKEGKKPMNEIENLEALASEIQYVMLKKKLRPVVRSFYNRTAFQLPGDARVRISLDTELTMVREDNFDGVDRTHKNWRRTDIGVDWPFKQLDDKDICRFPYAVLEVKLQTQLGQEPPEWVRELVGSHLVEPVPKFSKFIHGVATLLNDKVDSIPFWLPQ
smiles,measurement,setting,value
Nc1ncnc2c1ncn2[C@@H]1O[C@H](COP(=O)(O)OP(=O)(O)OP(=O)(O)O)[C@@H](O)[C@H]1O [ATP],"polyP synthesis, urea PAGE with DAPI stain",Vtc4p,only Vtc4p can generate inorganic polyphosphate from ATP
Cc1ncc(C[n+]2csc(CCOP(=O)(O)OP(=O)(O)O)c2C)c(N)n1 [ThDP],X-ray crystal structure of product complex (soak),"mouse ThTPase [1]; tunnel active site, Pi also bound",with a ThDP molecule and an orthophosphate located in the tunnel center
O=P(O)(O)O [orthophosphate],X-ray crystal structure of product complex (soak),"mouse ThTPase [1]; bound by Arg-125 near metal site 2, with ThDP",with a ThDP molecule and an orthophosphate located in the tunnel center
Cc1ncc(C[n+]2csc(CCOP(=O)(O)OP(=O)(O)OP(=O)(O)O)c2C)c(N)n1 [thiamine triphosphate],X-ray crystal structure of complex (soak),mouse ThTPase [2],we found an intact ThTP molecule bound in the tunnel center of ThTPase
O=P(O)(O)OP(=O)(O)OP(=O)(O)O [tripolyphosphate],X-ray crystal structure of complex (soak),ygiF,solved structures of ygiF in complex with PPPi and in the presence of either MgCl2

# From PMC4641920, “Structural Determinants for Substrate Binding and Catalysis in Triphosphate Tunnel Metalloenzymes” (The Journal of Biological Chemistry, 2015)
